Series [1] deals with mice. The series can be described thus: Compatibility after intravenous injection in mice. Type of series: in vivo. The conditions noted are these: for Mortality/survival after intravenous injection: 6-10 mice, 10 g. iodine/kg, 300 mg. iodine/ml., 0.8 ml./min. As for the experimental part:
1. Compatibility After Intravenous Injection
Each of 6-10 mice weighing 20-22 g. was injected intravenously with the contrast medium being tested in the form of a solution at a concentration of 300 mg. of iodine/ml., a dosage of 10 g. iodine/kg. and an injection rate of 0.8 ml./min. Ionic agents were given as meglumine salts.

The next series deals with rats. The format is in vivo. The conditions noted are these: 10 rats; 50 mg. iodine/ml.; 0.4 ml./kg. As to the method: In a further evaluation according to Valzelli, "A Simple Method to Inject Drugs Intracerebrally;" Med. Exp. Vol. 11: 23-26, (1964), each of 10 rats (90-110 g.) were injected intracerebrally with contrast medium solutions of compounds A-E at an iodine concentration of 50 mg./ml. in a dosage of 0.4 ml./kg. Toxic effects of compounds A-D included grave anomalies in posture (attitude), torsional spasms, excitation, and death.

The next series in a line: Solubility in water. The conditions noted are these: for solubility: water. Type of series: physicochemical.
The nature of series [2]: Protein binding, human plasma (ultrafiltration method). The format is in vitro ADME. The conditions noted are these: human, plasma. As for the experimental part:
(§1) Binding of contrast media to proteins of human plasma was determined at a final plasma concentration of 1.2 mg. iodine/ml. using the ultrafiltration method. The novel, nonionic dimer E was bound only to a very minor extent of 1.4±2.4%.

In the next series the test system is proteins of human plasma. The description is as above. Type of series: in vitro ADME. The conditions noted are these: n = 6; 1.2 mg. Iodine/ml.; ultrafiltration. As to the method:
as §1

Series [3] is described as follows: Osmotic pressure and osmolality of solutions of identical iodine concentration (300 mg. Iodine/ml.). The format is physicochemical. The conditions noted are these: at 37° C. The text has this:
The novel compounds are distinguished from other compounds by a lower diffusibility on account of their size.
Concentration, Osmotic Pressure, and Osmolality of Solutions of Identical

Another series relates to erythrocytes. Nature of the series: Effect of the contrast media on erythrocyte morphology. The conditions noted are these: 43 mg. Iodine/ml. Blood; score 0 (intact) to 5 (highest damage).
Series [4] concerns mice. Nature of the series: Compatibility after intravenous injection in mice. Type of series: in vivo.
The conditions of series [5]: background statement; cited from earlier work.
The conditions of series [6]: background statement; cited from earlier work. The source holds these as a separate data set.
The mark [7] stands for this setting: n = 6, 1.2 mg. Iodine/ml., ultrafiltration, read-out: Protein Binding Human Plasma (converted).

≈ marks a conversion by molar mass, not a printed value. Like-named read-outs stand apart in the source and are kept apart here.

Procedure for erythrocytes: Contrast medium solutions containing 300 mg. iodine/ml. were mixed in a ratio of 1:6 with heparinized blood. The final concentration of the contrast media was 43 mg. iodine/ml. The evaluation criterion was the change of the natural shape of the erythrocytes via echinocytes to spherocytes.

Broadly, the solubility is how much of the substance goes into solution per volume. A low value points to a poorly soluble substance. Take `CN(CC(O)CO)C(=O)c1c(I)c(NC(=O)C(=O)Nc2c(I)c(C(=O)N(C)CC(O)CO)c(I)c(C(=O)N(C)CC(O)CO)c2I)c(I)c(C(=O)N(C)CC(O)CO)c1I` (stereo not drawn) [Example 1, oxalic acid bis[3,5-bis(2,3-dihydroxypropyl-N-methylcarbamoyl)-2,4,6-triiodoanilide]]: in the series on mice [1], the “Mortality/survival after intravenous injection” value is “All mice survived”. Further, the “Toxic effects after intracerebral injection” value with rats is “caused none of these effects in any of the animals”. The solubility in the series “Solubility in water” (room temperature) was more than 600 mg/mL. The fraction unbound in series [2] (setting [7]) was 0.986. Besides, the “Protein Binding Human Plasma” value in the series on proteins of human plasma was determined as 1.4±2.4%. In [3], the Osmolality was 175 mOsm/kg . H2 O and the “Osmotic Pressure” value is on record as 4.5 at. Further, the “Effect on Erythrocyte Morphology, Damage Index” value with erythrocytes is 0.33. Besides, the “Compatibility After i.v. Injection in Mice, LD50” value in the series with mice [4] is 20 g. Iodine/kg.

On to `CN(CC(O)CO)C(=O)c1c(I)c(C(=O)N(C)CC(O)CO)c(I)c(N(C)C(=O)COCC(=O)N(C)c2c(I)c(C(=O)N(C)CC(O)CO)c(I)c(C(=O)N(C)CC(O)CO)c2I)c1I` (stereo not drawn) [Example 8, Oxaglutaric Acid bis[3,5-bis(2,3-Dihydroxypropyl-N-methylcarbamoyl)-2,4,6-triiodo-N-methylanilide]], for which, in “Solubility in water”, the solubility is more than 600 mg/mL. The “Effect on Erythrocyte Morphology, Damage Index” value in the series on erythrocytes is 0.09. Moreover, the “Compatibility After i.v. Injection in Mice, LD50” value in the series with mice [4] is recorded as 10 g. Iodine/kg.

For the molecule `CN(CC(O)CO)C(=O)c1c(I)c(C(=O)N(C)CC(O)CO)c(I)c(N(C)C(=O)CC(=O)N(C)c2c(I)c(C(=O)N(C)CC(O)CO)c(I)c(C(=O)N(C)CC(O)CO)c2I)c1I` (stereo not drawn) [Example 9, Malonic Acid bis[3,5-bis(2,3-Dihydroxypropyl-N-methylcarbamoyl)-2,4,6-triiodo-N-methylanilide]], the Solubility in water result in “Solubility in water” is “more than 60 g./150 ml. of solution”. In [3], the Osmolality is given as 197 mOsm/kg . H2 O and the “Osmotic Pressure” value is listed as 5.0 at.

For the molecule `CN(CC(O)CO)C(=O)c1c(I)c(NC(=O)CCCCC(=O)Nc2c(I)c(C(=O)N(C)CC(O)CO)c(I)c(C(=O)N(C)CC(O)CO)c2I)c(I)c(C(=O)N(C)CC(O)CO)c1I` (stereo not drawn) [Example 10, Adipic Acid bis[3,5-bis(2,3-Dihydroxypropyl-N-methylcarbamoyl)-2,4,6-triiodoanilide]], in the series on mice [1] (i.v., mice, determined with supersaturated solution), the “Compatibility After i.v. Injection in Mice, LD50” value was 30 g. Iodine/kg. For the same molecule, in “Solubility in water”, the “Solubility behaviour in words” value is given as “yields supersaturated solutions” and the concentration in solution (solubility) was 130 mg/mL (≈ 82.5 mM). Further, the “Effect on Erythrocyte Morphology, Damage Index” value in the series on erythrocytes amounted to 0.11.

Molecule `O=C(CCCCC(=O)Nc1c(I)c(C(=O)NC(CO)CO)c(I)c(C(=O)NC(CO)CO)c1I)Nc1c(I)c(C(=O)NC(CO)CO)c(I)c(C(=O)NC(CO)CO)c1I` [Example 11, Adipic Acid bis[3,5-bis(1,3-Dihydroxyisopropylcarbamoyl)-2,4,6-triiodoanilide]] registered a solubility in “Solubility in water” of less than 1 mg/mL.

`CN(CC(O)CO)C(=O)c1c(I)c(NC(=O)COCCOCC(=O)Nc2c(I)c(C(=O)N(C)CC(O)CO)c(I)c(C(=O)N(C)CC(O)CO)c2I)c(I)c(C(=O)N(C)CC(O)CO)c1I` (stereo not drawn) [Example 12, 3,6-Dioxasuberic Acid bis[3,5-bis(2,3-Dihydroxypropyl-N-methylcarbamoyl)-2,4,6-triiodoanilide]]: in [3], the Osmolality is 216 mOsm/kg . H2 O and the “Osmotic Pressure” value was determined as 5.5 at. Further, in the series on erythrocytes, the “Effect on Erythrocyte Morphology, Damage Index” value is 0.13. In addition, in the series with mice [4], the “Compatibility After i.v. Injection in Mice, LD50” value worked out at 22 g. Iodine/kg.

As to `CC(=O)Nc1c(I)c(NC(C)=O)c(I)c(C(=O)O)c1I` [Meglumine Amidotrizoate], in series [2] (setting [7]), the fraction unbound is 0.968. Also, in series [3], the Osmolality came to 1520 mOsm/kg . H2 O and the “Osmotic Pressure” value is on record as 38.6 at. Besides, the “Effect on Erythrocyte Morphology, Damage Index” value in the series on erythrocytes was 2.57. Moreover, in the series with mice [4], the “Compatibility After i.v. Injection in Mice, LD50” value is 6.5 g. Iodine/kg.

As for `CNC(=O)c1c(I)c(NC(=O)CCCCC(=O)Nc2c(I)c(C(=O)O)c(I)c(C(=O)NC)c2I)c(I)c(C(=O)O)c1I` [Meglumine Iocarmate], the “Osmotic pressure, relative” value in series [5] was “somewhat lower osmotic pressure”. In addition, the fraction unbound in series [2] (setting [7]) is 0.908. The “Resulting concentration in the urine” value in series [6] is “relatively high resulting concentration in the urine”. Besides, in series [3], the Osmolality was found to be 1260 mOsm/kg . H2 O and the “Osmotic Pressure” value is on record as 32.0 at. Also, the “Effect on Erythrocyte Morphology, Damage Index” value with erythrocytes is 1.37. Besides, in the series on mice [4], the “Compatibility After i.v. Injection in Mice, LD50” value worked out at 6.5 g. Iodine/kg.

Take `CNC(=O)c1c(I)c(NC(C)=O)c(I)c(C(=O)O)c1I` [Meglumine Iothalamate]: in series [2], the fraction unbound is 0.948. In addition, in series [3], the Osmolality was 1650 mOsm/kg . H2 O and the “Osmotic Pressure” value was determined as 41.9 at. Further, the “Compatibility After i.v. Injection in Mice, LD50” value with mice [4] is 6.5 g. Iodine/kg.

On to `CC(=O)Nc1c(I)c(C(=O)N[C@H]2C(O)O[C@H](CO)[C@@H](O)[C@@H]2O)c(I)c(N(C)C(C)=O)c1I` (stereo partly drawn) [Metrizamide, 2-(3-acetamido-5-N-methylacetamido-2,4,6-triiodobenzamido)-2-deoxy-D-glucose], for which, in the series on mice [1], the “Mortality/survival after intravenous injection” value is on record as “one animal died”. Further, the fraction unbound in [2] is 0.938. In addition, in series [3], the Osmolality was 485 mOsm/kg . H2 O and the “Osmotic Pressure” value is recorded as 12.3 at. In addition, the “Compatibility After i.v. Injection in Mice, LD50” value in the series with mice [4] is reported as 14 g. Iodine/kg.

(Values after patent US4239747A, “Dicarboxylic acid bis(3,5-dicarbamoyl-2,4,6-triiodoanilides) useful as x-ray contrast agents” (Schering Aktiengesellschaft, priority 1976, dated 1980).)
